{"source": "patent US6841363B2", "about": "“Preparation of capped mRNA” (Emory University, priority 2000, dated 2005)", "origin": "cited, not measured here", "key": {"[1]": {"conditions": "intrinsic fluorescence, m7GTP; W56Y compared with wild-type, 'shown therein' (Hsu et al. 2000 / U.S. Pat. No. 6,232,442)"}, "m7GTP": {"target": "m7GTP", "conditions": "previous study (U.S. Pat. No. 6,232,442); human eIF4E and mutants; read-out: Kd (affinity for m7GTP)"}}, "data": [{"substance": "wild-type: abundant form of human eIF4E (eukaryotic initiation factor 4E) previously isolated and characterized", "values": [{"measurement": "Kd", "setting": "[1]", "result": 318, "unit": "nM"}, {"measurement": "Kd", "setting": "m7GTP", "result": 1200, "unit": "nM"}]}]}
